The subject of one assay is SK-Br-3 cells. Kind of assay: soft agar colony formation of SK-Br-3 cells with gp30 or p75. It counts as cell-based, human. Particulars: 5×10^-12 M gp30 or 2×10^-12 M p75; 60 μM RL2, 127 nM ECD. How it is done: (§1) MDA-MB-453 (A), or SK-Br-3 cells (B) were plated in 35 mm tissue culture dishes (Costar). A bottom layer of 1 ml IMEM containing 0.6% Bacto-agar (Difco), 2 mM glutamine, and 10% FCS was prepared. Top layers contained 2×10^4 cells and samples in 0.4% Bacto-agar, 10% FCS IMEM. Samples were sterilized prior to plating by filtration using 0.22 μM Millex CU millipore filter. The legend of peptide symbols in A is identical to the one in FIG. 2. The following concentrations were used in B: 5×10^-12 M gp30, 2×10^-12 M p75, 60 μM RL2, and 127 nM p185^erbB-2 extracellular domain (ECD) as positive control. Experiments were carried out in FCS that had been tested for optimal cloning efficiency. Cells were incubated 7-9 days in humidified 5% CO2 atmosphere at 37° C. Colonies larger than 60-μm were counted using a Baush and Lomb Stem Cell Colony Counter (Artex Systems Corp.). Each group was assayed in triplicate. Experiments were performed three times.
To illustrate RL2 antiproliferative effects as a blocking action on the p185^erbB-2 ligand-mediated effects, we tested this peptide and the ECD of p185^erbB-2 on the anchorage-independent growth of SK-Br-3 cells in the presence of stimulating concentrations of either gp30 or p75 proteins, the latter known to interact exclusively with p185^erbB-2 (Lupu, et al., Proc. Natl. Acad. Sci. USA, 89:2287-91 (1992)). […]

The subject of assay [1] is p185^erbB-2. Kind of assay: p185^erbB-2 binding competition assay with iodinated 4D5 on SK-Br-3 cells. Also noted: species or system human. Particulars: 1 nM iodinated 4D5, 3 hours at 4° C., read-out: B/T 50, displacement of the binding of iodinated 4D5 to SK-Br-3. On the procedure:
SK-Br-3 cells were placed in 48-well plates (Costar) in 5% fetal calf serum (FCS), IMEM (Biofluids).Cells were washed and incubated for 30 minutes at 37° C. with binding buffer [1 mg/ml BSA, 10 mM Hepes, 20 mM glutamine, DMEM-F12 pH 7.4]. Binding studies were performed for 3 hours at 4° C. On SK-Br-3 cells, 1 nM iodinated 4D5 was incubated with various concentrations of P1 (.largecircle.), P2 (.circle-solid.), P3 (Δ), P4 (.tangle-solidup.), RL1 (.quadrature.), and RL2 (.box-solid.) unlabeled peptides (A), or with unlabeled 4D5 (B). After incubation, cells were washed three times with binding buffer, and solubilized with 1% SDS. Unspecific binding of iodinated 4D5 was determined with an excess (100 nM) of unlabeled 4D5. Each group was assayed in triplicate. Experiments were performed three times with similar results.
To explore whether the RL2 peptide could specifically represent either a p185^erbB-2 or EGFR-extracellular binding site, we tested the aforementioned peptides in p185^erbB-2 or EGFR binding competition assays. Since iodinated gp30 was not available, p185^erbB-2 and EGFR competition assays were performed using iodinated monoclonal antibody 4D5 and iodinated EGF respectively. p185^erbB-2 monoclonal antibodies 4D5 and 7C2 were provided by Genentech, Inc., South San Francisco, Calif. […]

Assay [2] concerns p185^erbB-2. Kind of assay: in vivo phosphorylation assay and phosphoaminoacid analysis in MDA-MB-453 cells. It counts as cell-based, human. On the procedure: MDA-MB-453 cells were grown in 35 mm dishes (Costar) to 70% confluence in 5% FCS IMEM. Cells were washed twice with PO4 free DMEM (Gibco), and then incubated for 3 hours at 37° C. with [^32 P]-orthophosphate (Amersham; 1.0 mCi/ml in each dish). Cells were then treated for 10 minutes at 37° C. with samples: control, 60 μM RL2, 50×10^-12 M gp30, or 50×10^-12 M gp30 plus 60 μM RL2. All samples were preincubated 30 minutes at 37° C. Cells were washed twice with PBS, and lysed at 4° C. for 10 minutes with a lysis buffer containing 1% Triton X-100, and kinase, protease and phosphatase inhibitors as described (Frackelton, et al., J. Biol. Chem., 259:7909 (1984)). After centrifugation at 10,000× g for 15 minutes at 4° C., tyrosinephosphorylated proteins were isolated from supernatants by microbath affinity chromatography on the phosphotyrosine monoclonal antibody 1G2 (provided by Dr. A. R. Frakelton) as previously described (Frackelton, et al., J. Biol Chem., 259:7909 (1984); and Beitz, et al., Proc. Natl. Acad. Sci. USA, 88:2021 (1991)), eluted with 1 mM phenylphosphate in PBS pH 7.4, and purified further by immunoprecipitation with p185^erbB-2 monoclonal antibody Ab-3 (Oncogene Science) adsorbed on protein A-Sepharose. […]

Assay [3] deals with EGFR. In words: in vitro tyrosine phosphorylation assay in MDA-MB-468 cells. It counts as cell-based, human. On the procedure: (§2) Cells were grown in 24-well plates (Costar) to 70% confluence in 5% FCS IMEM and serum-starved 24 hours prior to assays. Cells were then treated for 20 minutes at 37° C. with RL1 or RL2 with and without gp30 (at concentrations given below), as indicated on Figure panels, washed once with serum-free IMEM, and lysed at 4° C. for 10 minutes with a lysis buffer containing SDS (Emprotech). Total cellular proteins were subjected to 4-20% SDS-PAGE, and blotted onto Hybond-ECL membranes (Amersham). Membranes were blocked with tris-buffered saline [5% BSA, 0.5% Tween 20] and probed with 1 μg/ml phosphotyrosine monoclonal antibody (UBI) in tris-buffered saline [0.5% BSA, 0.5% Tween 20]. Immune complexes were detected using the ECL-western blotting kit (Amersham) as indicated by the manufacturer. Densitometric analyses were performed using a SAMBA 4000 system (Dynatech Laboratories). The values obtained were corrected for background and expressed as control percentages. Differences were considered significant when effects more than 10% versus controls occurred.
Upper panels correspond to MDA-MB-453 cells. […] Lower panels correspond to MDA-MB-468 cells. […] Lanes 1 to 4 correspond to increasing concentrations of RL2 (left panels), or RL1 (right panels) peptides. 1: 0.06 μM; 2: 0.6 μM; 3: 6 μM; 4: 60 μM. Experiments were repeated four times with similar results.
FIG. 6B: EGFR Tyrosine Phosphorylation assays were performed using MDA-MB-468 cells, as described for FIG. 3. […]
(§3) To further characterize RL2 blocking effects, we analyzed the homologous peptides for their ability to prevent the tyrosine phosphorylation induced by gp30 either in p185^erbB-2 or EGFR, or both of them. […] (Densitometric analyses of autoradiograms were performed using a SAMBA 4000 system (Dynatech Laboratories). The values obtained were corrected for background and expressed as control percentages. Differences were considered significant when effects more than 10% versus controls occurred.)

The test system of assay [4] is p185^erbB-2. Kind of assay: in vitro tyrosine phosphorylation assay in MDA-MB-453 cells. It counts as cell-based, human. Particulars: 0.06 to 60 μM, gp30 50 pM. On the procedure: as §2, with “Densitometric analyses were performed using a SAMBA 4000 system (Dynatech Laboratories).” left out, “Differences were considered significant when effects more than 10% versus controls occurred.” left out
as §3

The test system of assay [5] is EGFR. In words: EGFR binding competition assay with iodinated EGF in MDA-MB-468 cells. On the set-up: species or system human. Particulars: 1 nM iodinated EGF, peptide 0.6, 6, 60 μM. How it is done: FIG. 6A: EGFR binding competition assays were performed in MDA-MB-468 cells. In brief, 150,000 cells/well were plated in 24 well plate. The binding assays were performed as described by Lonardo, et al., Mol. Cell. Biol, 2:992 (1990). In brief, 1 nM iodinated EGF (Amersham) was incubated with increasing concentrations of RL2 or RL2-K (0.6, 6, 60 μM, respectively). Increasing concentrations of unlabelled EGF were used as control, as shown in the insert. Each group was assayed in triplicate. Values are from three experiments and expressed as the mean percent of control cases.
To explore whether the RL2 peptide could specifically represent either a p185^erbB-2 or EGFR-extracellular binding site, we tested the aforementioned peptides in p185^erbB-2 or EGFR binding competition assays. Since iodinated gp30 was not available, p185^erbB-2 and EGFR competition assays were performed using iodinated monoclonal antibody 4D5 and iodinated EGF respectively. p185^erbB-2 monoclonal antibodies 4D5 and 7C2 were provided by Genentech, Inc., South San Francisco, Calif.
Among the peptides tested, only RL2 displaced in a dose-dependent manner (B/T 50: 8 μM) the binding of iodinated 4D5 to SK-Br-3 (FIG. 2).

A further assay deals with monoclonal antibody 4D5. In words: binding of iodinated RL2 to a 4D5 affinity column. On the procedure:
First, RL2 peptide was iodinated using Iodogen, and purified with high-pressure liquid chromatography (HPLC); the specific activity was 26,000 cpm/μg peptide. […] 3×10^6 cpm of iodinated RL2 were loaded onto a protein A-sepharose column coupled with 4D5 (coupling percentage: 98.5%). Elutions were performed with increasing concentrations of MgCl2 from 1 to 5M (see Table 1). The specific elution marked as * on Table I was obtained at 2M MgCl2. The flow-through contained only background levels of radioactivity.

The next assay concerns MDA-MB-453 cells. Kind of assay: soft agar colony formation (anchorage-independent growth) of MDA-MB-453 cells. It counts as cell-based, human. Particulars: for Number of Colonies (± SD): MDA-MB 453 cells, untreated 942 ± 120. How it is done: as §1
*Cells were treated as indicated. The monoclonal antibody 4D5 (kindly
provided by Genentech, CA) and the RL2 peptide were used as positive
controls. Soft agar cloning assays were carried out as previously
described (Lupu, et al., Proc. Natl. Acad. Sci. USA, 87:2287-91, 1992).
Colonies larger than 69 μM were counted using a Baush & Lomb Stem Cell
Colony Counter (Artex Systems Corp.). Each group was assayed in
triplicate. Experiments were performed three times with similar results.

A further assay concerns MDA-MB-468 cells. In words: soft agar colony formation (anchorage-independent growth) of MDA-MB-468 cells. It is filed as cell-based, human. To be noted: 10 nM, positive control.

pIC50: −log10 of the molar value. Ends that are not written are not given here.

On to “p185^erbB-2 ECD: p185^erbB-2 extracellular domain (ECD), positive control”, for which the “inhibiting effects on anchorage-independent growth of SK-Br-3 cells in presence of gp30 or p75” value with SK-Br-3 cells is recorded as “fully reversed”.
Regarding LGLRSLRE [RL2], the pIC50 with p185^erbB-2 [1] is 5.10. In the assay with p185^erbB-2 [2] (60 μM RL2, 50×10^-12 M gp30), the “decrease of p185^erbB-2 tyrosine level of phosphorylation, presence of gp30-stimulation” value turned out to be 26%. The “decrease of p185^erbB-2 tyrosine level of phosphorylation, absence of gp30-stimulation” value in the assay on p185^erbB-2 [2] (60 μM RL2, [32P]-orthophosphate labelling) is reported as 50%. Moreover, in the assay on EGFR [3] (60 μM, gp30 50 pM), the “inhibition of gp30-stimulated level of EGFR tyrosine phosphorylation” value is “not the gp30-stimulated level”. For the same substance, in the assay with EGFR [3] (60 μM, no gp30), the “inhibition of baseline level of EGFR tyrosine phosphorylation” value is reported as 71%. Further, the “effect on EGF-induced tyrosine phosphorylation of EGFR” value with EGFR [3] (EGF 1.68 nM, peptide 0.6, 6 and 60 μM) is recorded as “no effect”. The “inhibition of gp30-stimulated level of p185^erbB-2 tyrosine phosphorylation” value in the assay on p185^erbB-2 [4] is recorded as 80%. Moreover, the “effect on binding of iodinated EGF to the EGFR” value with EGFR [5] is “absence of an effect”. In addition, the “inhibiting effects on anchorage-independent growth of SK-Br-3 cells in presence of gp30 or p75” value with SK-Br-3 cells is given as “fully reversed”. Further, the “radioactivity, flow through” value with monoclonal antibody 4D5 (input 3 × 10^6 cpm iodinated RL2, flow through) is on record as 2.6 × 10^5 cpm. The “radioactivity, wash” value in the assay with monoclonal antibody 4D5 (input 3 × 10^6 cpm iodinated RL2, wash) is listed as 2.54 × 10^5 cpm. Further, in the assay on monoclonal antibody 4D5 (protein A-sepharose column coupled with 4D5), the “binding of iodinated peptide to 4D5-affinity column” value was “specifically bind to a 4D5-affinity column”. Also, the “inhibition of MDA-MB-453 cell anchorage-independent growth” value with MDA-MB-453 cells (6-60 μM) was 72%. The “Number of Colonies (± SD)” value in the assay with MDA-MB-453 cells (6 μM) turned out to be 245 ± 46; in the assay with MDA-MB-453 cells (60 μM), 123 ± 21.
On to “EGF: epidermal growth factor, positive control”, for which the “response of MDA-MB-468 cell anchorage-independent growth” value in the assay with MDA-MB-468 cells is recorded as “did respond”.

The record behind these values is patent publication US5874528A, “Binding peptides which interact with ligand growth factors of the epidermal growth factor receptor and erbB-2 receptor” (Georgetown University, priority 1994, dated 1999).
